Test results from patent US5646042A, “C-myb targeted ribozymes” (Ribozyme Pharmaceuticals, Inc., priority 1995, dated 1997).

Tested on: rat smooth muscle cells
Experiment: Serum-stimulated rat smooth muscle cell proliferation (BrdU incorporation)
Assay type: cell-based
Settings: for % cell proliferation: no ribozyme; for augmentation of ribozyme inhibition of smooth muscle cell proliferation: 0.2 μM ribozyme 575 12/12 complexed with DMRIE/DOPE at 1:1 charge ratio
Procedure: The ribozymes that cleaved c-myb RNA described above were assayed for their effect on smooth muscle cell proliferation. Rat vascular smooth muscle cells were isolated and cultured as follows. Aortas from adult Sprague-Dawley rats were dissected, connective tissue was removed under a dissecting microscope, and 1 mm^2 pieces of the vessel were placed, intimal side up, in a Petri dish in Modified Eagle's Medium (MEM) with the following additives: 10% FBS, 2% tryptose phosphate broth, 1% penicillin/streptomycin and 2 mM L-Glutamine. The smooth muscle cells were allowed to migrate and grow to confluence over a 3-4 week period. These primary cells were frozen and subsequent passages were grown at 37° C. in 5% CO2 in Dulbecco's modified Eagle's medium (DMEM), 10% fetal bovine serum (FBS), and the following additives: 2 mM L-Glutamine, 1% penicillin/streptomycin, 1 mM sodium pyruvate, non-essential amino acids (0.1 mM of each amino acid), and 20 mM Hepes pH 7.4. Cells passed four to six times were used in proliferation assays. For the cell proliferation assays, 24-well tissue culture plates were prepared by coating the wells with 0.2% gelatin and washing once with phosphate-buffered saline (PBS). RASMC were inoculated at 1×10^4 cells per well in 1 ml of DMEM plus 10% FBS and additives and incubated for 24 hours. The cells were subconfluent when plated at this density. The cells were serum-starved by removing the medium, washing once with PBS, and incubating 48-72 hours in DMEM containing 0.5% FBS plus additives.
Serum-starved smooth muscle cells were washed twice with PBS, and the RNA/lipid complex was added. The plates were incubated for 4 hours at 37° C. The medium was then removed and DMEM containing 10% FBS, additives and 10 μM bromodeoxyuridine (BrdU) was added. In some wells, FBS was omitted to determine the baseline of unstimulated proliferation. The plates were incubated at 37° C. for 20-24 hours, fixed with 0.3% H2 O2 in 100% methanol, and stained for BrdU incorporation by standard methods. In this procedure, cells that have proliferated and incorporated BrdU stain brown; non-proliferating cells are counter-staineda light purple. Both BrdU positive and BrdU negative cells were counted under the microscope. 300-600 total cells per well were counted. In the following experiments, the percentage of the total cells that have incorporated BrdU (% cell proliferation) is presented. […] Percent inhibition then is calculated from the % cell proliferation values as follows: % inhibition=100-100((Ribozyme-0% serum)/(Control-0% serum)).
These include, but are not limited to, ammonium chloride, carbonyl cyanide p-trifluoromethoxy phenyl hydrazone (FCCP), chloroquine, monensin, colchicine, and viral particles (Cotten, M. et al., 1990, Proc. Natl. Acad. Sci. USA, 87, 4033-4037; Cotten, M. et al., 1993, J. Virol., 67, 3777-3785; Cotten, M. et al., 1992, Proc. Natl. Acad. Sci USA, 89, 6094-6098; Cristiano, R. J. et al., 1993, Proc. Natl. Acad. Sci. U S A, 90, 2122-6; Cudel, D. T. et al., 1991, Proc. Nat. Acad. Sci., USA, 88, 8850-8854; Ege, T. et al., 1984, Exp. Cell Res., 155, 9-16; Harris, C. E. et al., 1993, Am. J. Respir. Cell Mol. Biol., 9, 441-7; Seth, P. et al., 1994, J. Virol., 68, 933-40; Zenke, M. et al., 1990, Proc. Natl. Acad. Sci. USA, 87, 3655-3659). […] To determine whether such agents may augment the functional delivery of RNA and ribozymes to smooth muscle cells, the effects of chloroquine on ribozyme inhibition of smooth muscle cell proliferation were assessed. […]

CCN(CC)CCCC(C)Nc1ccnc2cc(Cl)ccc12 (centres unmarked) [chloroquine] was tested, and the “% cell proliferation” value (10 μM chloroquine added upon stimulation, stimulation with 10% serum) was 80.5±1.5%, the “augmentation of ribozyme inhibition of smooth muscle cell proliferation” value (10 μM chloroquine) was “two- to three-fold” and the “augmentation of ribozyme inhibition of smooth muscle cell proliferation” value (10 μM chloroquine, listed as Chloroquine) was 2- to 3 fold. For the same compound, the “effect of chloroquine on untreated cells (proliferation)” value (10 μM chloroquine, cells without ribozyme) was “no effect” and the “% cell proliferation” value (10 μM chloroquine, unstimulated cells) was 7±0.5%.
